For 64 compounds, EC50 results are on record in PubChem BioAssay AID1625 (Sanford-Burnham Center for Chemical Genomics, 2009).

The subject of this assay is MIN6 insulin promoter-GFP reporter, high-content imaging. Kind of assay: insulin promoter activators in MIN6 cells, imaging, high-content screening, mouse beta cells (AID 1625).

Calls of active or inactive are those of the source.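 How the source made its calls: active means z-score above 3 at 5 µM with at least 500 cells counted in the well; inconclusive means wells under 500 cells, flagged as cytotoxic or low count; inactive means the rest.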

With `O=[N+]([O-])c1ccc(N2N=C(c3ccco3)CC2c2ccccc2)cc1` (centres undefined), the EC50 – broadly, the concentration giving half of the maximal effect – was > 16 µM (inactive). As to `Cc1oc(C)c2c(=O)ccc3c(c12)OC(N)=C(C#N)C3c1ccccc1Cl` (centres undefined), the EC50 is 11.4 µM (inactive). The figure for `CC(C)N1CC=C2C(C#N)=C(N)C(C#N)(C#N)[C@H](c3ccoc3)[C@H]2C1` is 8.51 µM. To `CCN(CC)c1ccc2cc(C(N)=O)/c(=N\NC(=O)c3ccncc3)oc2c1` belongs 9.67 µM; to `N#C/C(=C/c1ccc(N2CCOCC2)o1)c1nc2ccccc2[nH]1`, 7.76 µM. On to `Cc1oc(C)c2c(=O)ccc3c(c12)OC(N)=C(C#N)C3c1ccc(F)cc1` (centres undefined), for which the EC50 is > 16 µM (inactive). The figure for `COc1ccc(NC(=O)/C(C#N)=C\c2ccc(N3CCOCC3)o2)cc1` is 9.14 µM. To `CCC(C)N1C(=O)/C(=C/c2c(NCCCOC(C)C)nc3c(C)cccn3c2=O)SC1=S` (centres undefined) belongs 2.83 µM; to `CCN1C=CC2=C(C#N)C(N)C(C#N)(C#N)C(c3ccccc3C(F)(F)F)C2C1` (centres undefined), 4.63 µM. As to `CC(=O)c1c(N2CCOCC2)[nH]c(-c2ccccc2)nc1=S`, the EC50 is 13.5 µM (inactive).

Regarding `CCN(CC)c1ccc2cc(-c3nc(-c4ccc(OC)cc4)cs3)c(=O)oc2c1`, the EC50 was < 0.25 µM. With `N#C/C(=C/c1ccc(N2CCCCC2)o1)C(=O)Nc1ccc2ccccc2c1`, the EC50 is 0.564 µM.

As for `N#Cc1ccc(-c2ccccc2)nc1SCC(=O)c1cccc(Cl)c1`, the EC50 was > 16 µM (inactive). The figure for `CCOC(=O)CN1C(=O)S/C(=C/c2ccc(N3CCCCC3)o2)C1=O` is 8.3 µM. To `N#CC(C#N)=C1C=C2C=C(N3CCOCC3)CCC2CC1` (centres undefined) belongs 2.56 µM. To `O=C1/C(=C/c2ccc(N3CCCC3)cc2)NC(=S)N1C1CC1` belongs 7.35 µM; to `N#C/C(=C/c1ccc(N2CCOCC2)o1)C(=O)Nc1ccccc1`, 9.79 µM.

Consider `Cn1c(=O)c(N)c2c3c(c(Br)ccc31)C(=O)c1ccccc1-2`, for which the EC50 is 8.88 µM.

For the compound `CCCN1C(=O)/C(=C/c2c(N3CCNC(=O)C3CC(=O)OCC)nc3c(C)cccn3c2=O)SC1=S` (centres undefined), the EC50 is > 16 µM (inactive).

Consider `COc1cc(N2CCCC2)c(OC)cc1/C=C(/C#N)c1cccc(F)c1`, for which the EC50 is > 16 µM (inactive). To `O=S(=O)([O-])CCC[n+]1c(/C=C\Nc2ccccc2)oc2ccc(-c3ccccc3)cc21` belongs 3.34 µM.

Consider `CC(C)NC(=O)/C(C#N)=C/c1ccc(N(C)C)o1`, for which the EC50 was 8.07 µM. On to `CCCN1CC=C2C(C#N)=C(N)C(C#N)(C#N)C(c3cc(OC)ccc3OC)C2C1` (centres undefined), for which the EC50 was 5.05 µM.

Turning to `CC(=O)Cc1cc(O)c2ccccc2c1OC(=O)c1ccc(Br)cc1`, the EC50 is > 16 µM (inactive).

Take `COc1cccc(C2C3CN(C)CC=C3C(C#N)=C(N)C2(C#N)C#N)c1OC` (centres undefined): the EC50 is 12.3 µM (inactive). To `Cc1ccc(C(=O)NN2C(=O)/C(=C/c3cn(C)c4ccccc34)SC2=S)cc1` belongs > 16 µM (inactive); to `O=c1[nH]c2ccccc2nc1/C=C/c1ccc(F)cc1`, > 16 µM (inactive).

On to `CC(C)N1CCc2c(sc(NC(=O)c3ccc(S(=O)(=O)N4CCc5ccccc54)cc3)c2C(N)=O)C1`, for which the EC50 is > 16 µM (inactive). To `CCNc1ccc2noc3c2c1C(=O)c1ccccc1-3` belongs > 16 µM (inactive). To `C=CCN1C(=O)c2cccc3c(N4CCCCC4)ccc(c23)C1=O` belongs 5.42 µM; to `CC(=O)c1cc(NC(=O)c2ccc(Cl)cc2)c(=O)oc1/C=C/N(C)C`, > 16 µM (inactive); to `CN1C(=O)C(=Cc2ccc(N3CCCCC3)o2)C(=O)N(C)C1=S`, > 16 µM (inactive). The figure for `C=CCN1C(=O)/C(=C/c2ccc(N(C)C)cc2)S/C1=N\c1nnc(CC)s1` is 3.86 µM; for `O=[N+]([O-])c1ccc(/C=C/C2=NN(c3ccccc3)C(c3ccco3)C2)o1` (centres undefined) it is > 16 µM (inactive); for `N#C/C(=C/c1ccc(N2CCCCC2)o1)c1cccc(F)c1` it is 8.75 µM. Consider `Cc1ccc(-c2ccc(/C=C(\C#N)C(=O)Nc3cc(C)nn3-c3ccccc3)o2)cc1`, for which the EC50 was > 16 µM (inactive). To `COc1ccc2nc(SCC(C)=O)c(C#N)cc2c1` belongs 8.2 µM. Take `CC(=O)Oc1ccc2c(c1)Oc1cc(OC(C)=O)ccc1C21OC(=O)c2ccccc21`: the EC50 was 0.439 µM. To `Nc1c(C(=O)c2cccs2)sc2nsc(SCCN3CCCCC3)c12` belongs 9.62 µM; to `O=C1/C(=C/c2ccc(N3CCOCC3)o2)SC(=Nc2ccccc2)N1CCc1c[nH]c2ccccc12`, 0.702 µM; to `CCN1CC=C2C(C#N)=C(N)C(C#N)(C#N)C(c3cc(Cl)ccc3Cl)C2C1` (centres undefined), 8.66 µM. Consider `O=C1S/C(=C/c2ccc(N3CCOCC3)o2)C(=O)N1Cc1ccc(F)cc1`, for which the EC50 is > 16 µM (inactive). The figure for `CCOC(=O)N1CCN(S(=O)(=O)c2ccc3c(c2)oc(=O)n3C)CC1` is > 16 µM (inactive). The figure for `Nc1c(C(=O)C2CC2)sc2nc(-c3ccccc3)cc(C(F)(F)F)c12` is 8.81 µM; for `Cc1cc(C)cc(N=Cc2[nH]c3ccc(Br)c(Cl)c3c2O)c1` it is 3.42 µM. The figure for `COc1cc(/C=C(\C#N)c2nc3ccccc3o2)ccc1O` is > 16 µM (inactive); for `Cc1nonc1NC(=O)CSc1nc2c(C)cccc2cc1C#N` it is > 16 µM (inactive). On to `C=CCN1C=CC(=CC=C(C#N)C#N)C=C1`, for which the EC50 is 10.4 µM (inactive).

In the case of `Cn1cc(/C=C2\SC(=S)N(NC(=O)c3ccccc3)C2=O)c2ccccc21`, the EC50 was > 16 µM (inactive). To `Cc1cccn2c(=O)c(/C=C3\SC(=S)NC3=O)c(NCCCN3CCOCC3)nc12` belongs 12.2 µM (inactive). To `COc1ccccc1N/C=C/c1onc(C)c1[N+](=O)[O-]` belongs 2.22 µM; to `Nc1c(C(=O)Nc2nccs2)sc2nc(-c3cccs3)cc(C(F)(F)F)c12`, 5.91 µM; to `O=C(/C=C/c1ccc(N2CCC(c3ccccc3)=N2)cc1)c1ccccc1`, 2.6 µM.

As to `CN(C)c1ccc(/C=C/C(O)=C2/C(=O)N(C)C3(C)CC2c2ccccc2O3)cc1` (centres undefined), the EC50 was > 16 µM (inactive). The figure for `O=C(C1=C(O)C(=O)N(c2nccs2)C1c1ccccc1)c1cc2ccccc2o1` (centres undefined) is 13.3 µM (inactive); for `CCN(CC)c1ccc(/C=N/c2sc3c(c2C#N)C2CCN3CC2)c(O)c1` it is 2.83 µM; for `CCCN1C(=O)/C(=C\C=C2\N(CC)c3ccccc3C2(C)C)SC1=S` it is > 16 µM (inactive). The figure for `CN1CC=C2C(C#N)=C(N)C(C#N)(C#N)[C@H](c3cccs3)[C@H]2C1` is 11.1 µM (inactive). The figure for `CCCSc1nc2sc3c(c2c(=O)[nH]1)CCN(Cc1ccccc1)C3` is > 16 µM (inactive).

On to `CCN(CC)c1ccc(/C=C(\C#N)C(=O)c2ccc(Br)cc2)cc1`, for which the EC50 is 12 µM (inactive). The figure for `CCCN1CCc2c(sc(NC(=S)NC(=O)c3ccccc3)c2C#N)C1` is 7.92 µM; for `COc1ccc(CN=Cc2[nH]c3ccc(Br)c(Cl)c3c2O)cc1` it is > 16 µM (inactive); for `CN1/C(=C\C=C2C(=O)NC(=S)NC2=O)C(C)(C)c2ccccc21` it is 3.89 µM. The figure for `N#Cc1c(C(F)(F)F)cc(-c2ccccc2)nc1SCc1nc(N)nc(N2CCOCC2)n1` is 3.73 µM.
